Results: paper PMC8622623, “Histamine H3 Receptor Ligands—KSK-59 and KSK-73—Reduce Body Weight Gain in a Rat Model of Excessive Eating” (Pharmaceuticals, 2021)
“Also recorded” adds a separate entry of the source.

Tests used:
[1] = test system: non-obese rats fed palatable diet; assay: Plasma lipids, hormones, corticosterone, CRP and IL-6 at end of chronic experiment; assay type: in vivo, female Wistar rats; conditions: for plasma triglyceride levels: day 31, palatable feed + treatment, compared to rats fed standard feed
Method: On the 31st day of the experiment, 20 min after i.p. administration of heparin (5000 units/rat) and thiopental (70 mg/kg b.w.), blood was collected from the left carotid artery and then centrifuged at 600× g (15 min, 4 °C) in order to obtain the plasma. To determine total cholesterol, HDL-cholesterol, LDL-cholesterol or triglyceride levels in plasma, standard enzymatic and spectrophotometric tests (Biomaxima S.A. Lublin, Poland) were used. The ELISA Kit (Cayman Chemical, USA) assay was used to determine corticosterone levels in plasma. To determine IL-6, ghrelin, adiponectin, leptin and C-reactive protein levels in plasma, standard ELISA Kit (Bioassay Technology Laboratory, Shanghai, China) was used.

[2] = test system: non-obese rats fed palatable diet; assay: Model of excessive eating: body weight, calorie intake, fat pads; assay type: in vivo, female Wistar rats; conditions: for body weight gain: i.p. daily 28 days, vs palatable diet + vehicle; for caloric intake over the 28 days: i.p., KSK compounds 10 mg/kg b.w. or bupropion/naltrexone
Method: Female Wistar rats were housed in pairs. […] The water was available ad libitum. Palatable control group (palatable diet + vehicle) received vehicle (1% Tween 80, i.p.), while palatable test groups (palatable diet + compound) were injected i.p. tested compounds at the dose of 10 or 1 mg/kg b.w./day suspended in 1% Tween 80 or the reference compound bupropion/naltrexon. The combination of bupropion at a dose of 20 mg/kg b.w./day and naltrexone at a dose of 1 mg/kg b.w./day was also suspended in 1% Tween 80 and administered i.p. Weight was evaluated daily. Calorie intake was evaluated ones per week. On the 31st day, 20 min after i.p. administration of heparin (5000 units/rat) and thiopental (70 mg/kg b.w.), animals were sacrificed and peritoneal fat pads were collected (Figure 11).
Palatable diet contained: 100 g peanuts—612 kcal; 100 mL condensed milk—131 kcal; 100 g milk chocolate—529 kcal; 100 g cheese—325 kcal. Standard diet contained 100 g feed—280 kcal.

[3] = target: T1, H3 histamine receptor (Homo sapiens, UniProt Q9Y5N1); assay: Aequoscreen intrinsic activity assay (antagonist dose-response); assay type: cell-based
T1 construct: host or cells: recombinant frozen ready-to-use cells
Method: Intrinsic activity studies were performed by two methods, Aequoscreen and Lance cAMP assays according to the manufacturer of the ready to use cells with stable expression of the H3 histamine receptor (Perkin Elmer, Waltham, MA, USA).
The Aequoscreen technology uses the recombinant cell lines with stable co-expression of apoaequorin and a GPCR as a system to detect activation of the receptor, following addition of an agonist, via the measurement of light emission. For measurement cells (frozen, ready to use) were thawed and resuspended in 10 mL of an assay buffer containing 5 μM of coelenterazine h. Then cells suspension was placed in a 10 mL Falcon tube, fixed onto a rotating wheel and incubated overnight at RT° in the dark. Cells were diluted with assay buffer to 5000 cells/20 µL. Agonistic ligands 2× (50 μL/well), diluted in assay buffer, were prepared in 1/2 area white polystyrene plates, and the 50 μL of cell suspension was dispensed on the ligands using the injector. The light emission was recorded for 20 s. Cells were incubated with antagonist for 15 min at RT°. Then 50 µL of agonist (3 × EC80 final concentration) was injected onto the mixture of cells and antagonist and the light emission was recorded for 20 s.

[4] = in vitro; conditions: PAMPA, pH 7.4
Method: The reference compounds, well-permeable caffeine and low-permeable norfloxacin were obtained from Sigma-Aldrich (St. Louis, MO, USA). Used for this study, pre-coated PAMPA Plate System Gentest™ was provided by Corning (Tewksbury, MA, USA). The system consisted of 96-well receiver filter plate pre-coated with structured layers of phospholipids and a donor microplate. The assay was performed as described previously. […] After 5 h of incubation at RT° the UPLC-MS spectrometry (Waters ACQUITY™ TQD system with the TQ Detector, Waters, Milford, MA, USA) method was used to estimate the quantity of compounds that penetrated from donor to acceptor wells. The permeability coefficients (Pe, cm/s) were calculated using the formulas provided by Corning.

[5] = design: method as in PMID 31362197; conditions: PAMPA, published previously ref 17; cited from earlier work
[6] = palatable feed, KSK compounds 10 mg/kg b.w. or bupropion/naltrexone combination
[7] = palatable feed, vs palatable feed + vehicle

T1 sequence (Q9Y5N1 whole entry): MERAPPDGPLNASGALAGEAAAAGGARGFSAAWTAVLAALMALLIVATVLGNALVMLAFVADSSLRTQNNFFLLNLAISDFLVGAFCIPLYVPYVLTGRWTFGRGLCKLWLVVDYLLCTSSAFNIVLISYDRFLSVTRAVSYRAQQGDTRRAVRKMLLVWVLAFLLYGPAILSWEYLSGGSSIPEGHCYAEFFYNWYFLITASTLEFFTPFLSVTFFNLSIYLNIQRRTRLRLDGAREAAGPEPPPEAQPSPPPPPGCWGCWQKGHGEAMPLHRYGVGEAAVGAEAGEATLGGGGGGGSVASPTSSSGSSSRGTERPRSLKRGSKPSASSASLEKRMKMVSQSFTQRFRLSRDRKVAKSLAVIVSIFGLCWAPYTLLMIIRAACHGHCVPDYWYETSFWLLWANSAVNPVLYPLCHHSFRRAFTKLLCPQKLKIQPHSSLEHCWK

Row | SMILES | plasma triglyceride levels [1] | plasma adiponectin level ([1]; day 31, vs control rats fed palatable feed) | body weight gain ([2]; palatable feed, 1 mg/kg b.w.) | body weight gain [2, 6] | caloric intake over the 28 days [2, 7] | IC50 [3] [µM] | Papp at 5 h, 200 µM [4] [nm/s] | fat pads in the peritoneal cavity ([2]; end of experiment, vs palatable feed + vehicle) | body weight after the first administration ([2]; palatable feed, i.p. 10 mg/kg b.w., 10 mg/kg) | Pe (permeability coefficient) ± SD [5]
1 | CC(=O)c1ccc(OCCCCCCN2CCN(c3ccncc3)CC2)cc1.O=C(O)C(=O)O [KSK-59, 1-(4-((6-(4-(pyridin-4-yl)piperazin-1-yl)hexyl)oxy)phenyl)ethan-1-one oxalate] | statistically significantly higher | Significantly lower level of adiponectin | did not significantly affect weight gain | gained less weight than the control group fed palatable diet | comparable to the amount consumed by the control rats | 0.00331 ± 0.0032 | 43.5 ± 9.3 | – | – | –
2 | CC(=O)c1ccc(OCCCCCCCCN2CCN(c3ccncc3)CC2)cc1.O=C(O)C(=O)O [KSK-73, 1-(4-((8-(4-(pyridin-4-yl)piperazin-1-yl)octyl)oxy)phenyl)ethan-1-one oxalate] | comparable to the ones observed in rats from the control group fed standard feed | – | caused significantly greater weight gain | gained less weight than the control group fed palatable diet | significantly reduced animals caloric intake | 0.0206 ± 0.0045 | – | Significantly fewer fat pads | slowed down the rats’ body weight gain already after the first administration; also recorded: weight loss after the first administration | 6.22 ± 2.3 10^−6 cm/s
